Results on 19 compounds are retold here after the supplement of paper PMC11061612.

The structures appear in SMILES notation.

Test [1] relates to HCC-44 (Lung Adenocarcinoma). The experiment in a line: combination Emax (second highest fraction inhibited in the dose matrix, 72 h); higher = more inhibition; extreme values may be limits of the assay. In outline: (§1)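 Bliss excess equals the observed combination effect minus the expected value EA + EB − EA·EB, where EA and EB are the effects of each agent alone. Combination Emax is the second-highest inhibition within the matrix. Inhibition was scaled from CellTiter-Glo 2.0 luminescence, with 0 set by vehicle wells and 1 by blank wells, after 72 hours of two-drug dosing of cells plated in 1536-well plates.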

Test [2] deals with HCC-44 (Lung Adenocarcinoma). Description: Bliss excess, mean over the matrix (fraction); higher = more synergy. A digest of the protocol:
as §1

For test [3], the system named is AsPC-1 (Pancreatic Carcinoma). The test is described as above. A digest of the protocol:
as §1

In test [4] the test system is OVTOKO (Ovarian Carcinoma). The description is as above. A digest of the protocol: as §1
In test [5] the test system is LAMA-84 (Chronic Myelogenous Leukemia). Described as above. In outline: as §1
The test system of test [6] is Becker (Low Grade Glioma). The test is described as above. In outline: as §1

Regarding `CN(C)CCCOc1ccc(-c2ccc3ncc4c(c3c2)n(C2CCOCC2)c(=O)n4C)cn1` [AZD0156] + O=C(c1cc(Cc2n[nH]c(=O)c3ccccc23)ccc1F)N1CCN(C(=O)C2CC2)CC1 [Olaparib] (first compound max 3 µM, partner max 3 µM), the “combination Emax” value in test [1] worked out at 0.456. The Bliss excess was 0.0947 in test [2]; 0.005 in test [3]; -0.0032 in test [4]; 0.167 in test [5]; -0.0359 in test [6].

In the case of `COc1nnc2ccc(N3CCC(c4ccc(OCCN5CCN(C)C(=O)[C@H]5C)cc4)CC3)nn12` [AZD5153] + Cn1cnc2c(F)c(Nc3ccc(Br)cc3Cl)c(C(=O)NOCCO)cc21 [Selumetinib] (first compound max 1 µM, 7x7, partner max 10 µM), the “combination Emax” value in test [1] was 0.728. The Bliss excess was 0.0636 in test [2]; -0.0238 in test [3]; -0.0591 in test [4]; 0.0757 in test [5]; 0.0472 in test [6].

`COc1nnc2ccc(N3CCC(c4ccc(OCCN5CCN(C)C(=O)[C@H]5C)cc4)CC3)nn12` [AZD5153] + CCN(CCO)CCCOc1ccc2c(Nc3cc(CC(=O)Nc4cccc(F)c4)[nH]n3)ncnc2c1 [AZD2811] (first compound max 1 µM, 7x7, partner max 1 µM): the “combination Emax” value in test [1] was 0.617. The Bliss excess in test [2] is -0.0338; in test [3], -0.0427; in test [4], -0.0423; in test [5], 0.0006; in test [6] it was 0.0134.

Regarding `Cn1cnc2c(F)c(Nc3ccc(Br)cc3Cl)c(C(=O)NOCCO)cc21` [Selumetinib] + C[C@@H]1COCCN1C2=NC(=NC(=C2)C3(CC3)[S@](=N)(=O)C)C4=C5C=CNC5=NC=C4 [AZD6738] (first compound max 10 µM, 7x7, partner max 10 µM), in test [1], the “combination Emax” value amounted to 0.503. Besides, the Bliss excess in test [2] is -0.034; in test [3], 0.0716; in test [4], -0.0278; in test [5], 0.0012; in test [6] it was 0.0016.

As to `CC(=O)c1c(C)c2cnc(Nc3ccc(N4CCNCC4)cn3)nc2n(C2CCCC2)c1=O` [Palbociclib] + Cn1cnc2c(F)c(Nc3ccc(Br)cc3Cl)c(C(=O)NOCCO)cc21 [Selumetinib] (first compound max 10 µM, 7x7, partner max 10 µM), the “combination Emax” value in test [1] was determined as 0.426. For the same compound, the Bliss excess is 0.0332 in test [2]; -0.0664 in test [3]; -0.0503 in test [4]; -0.0263 in test [5]; 0.0393 in test [6].

For `NC1(C(=O)N[C@@H](CCO)c2ccc(Cl)cc2)CCN(c2ncnc3[nH]ccc23)CC1` [Capivasertib] + CC(C)n1c(=O)n(C)c2cnc3cc(F)c(-c4ccc(OCCCN5CCCCC5)nc4)cc3c21 [AZD1390] (first compound max 10 µM, 7x7, partner max 0.3 µM), in test [1], the “combination Emax” value is 0.602. Also, the Bliss excess in test [2] is -0.0359; in test [3] it was -0.0512; in test [4], -0.0752; in test [5], -0.0119; in test [6], -0.0136.

For the compound `Cn1cnc2c(F)c(Nc3ccc(Br)cc3Cl)c(C(=O)NOCCO)cc21` [Selumetinib] + CC(C)n1c(=O)n(C)c2cnc3cc(F)c(-c4ccc(OCCCN5CCCCC5)nc4)cc3c21 [AZD1390] (first compound max 10 µM, 7x7, partner max 0.3 µM), the “combination Emax” value in test [1] is 0.396. In addition, the Bliss excess is -0.0225 in test [2]; -0.0093 in test [3]; -0.0509 in test [4]; -0.0309 in test [5]; -0.007 in test [6].

For the compound `COc1nnc2ccc(N3CCC(c4ccc(OCCN5CCN(C)C(=O)[C@H]5C)cc4)CC3)nn12` [AZD5153] + CC1(C)CCC(CN2CCN(c3ccc(C(=O)NS(=O)(=O)c4ccc(NCC5CCOCC5)c([N+](=O)[O-])c4)c(Oc4cnc5[nH]ccc5c4)c3)CC2)=C(c2ccc(Cl)cc2)C1 [Venetoclax] (first compound max 1 µM, 7x7, partner max 1 µM), in test [1], the “combination Emax” value amounted to 0.615. Further, the Bliss excess in test [2] is -0.0395; in test [3], -0.0807; in test [4], -0.0682; in test [5], -0.0361; in test [6], -0.0487.

`NC1(C(=O)N[C@@H](CCO)c2ccc(Cl)cc2)CCN(c2ncnc3[nH]ccc23)CC1` [Capivasertib] + COc1nnc2ccc(N3CCC(c4ccc(OCCN5CCN(C)C(=O)[C@H]5C)cc4)CC3)nn12 [AZD5153] (first compound max 10 µM, 7x7, partner max 1 µM): the “combination Emax” value in test [1] was 0.704. Also, the Bliss excess was -0.0278 in test [2]; -0.0273 in test [3]; 0.0497 in test [4]; -0.0038 in test [5]; 0.0414 in test [6].

In the case of `C[C@@H](c1ccc2nccn2c1)n1nnc2ncc(-c3cnn(C)c3)nc21` [Savolitinib] + CC1(C)CCC(CN2CCN(c3ccc(C(=O)NS(=O)(=O)c4ccc(NCC5CCOCC5)c([N+](=O)[O-])c4)c(Oc4cnc5[nH]ccc5c4)c3)CC2)=C(c2ccc(Cl)cc2)C1 [Venetoclax] (first compound max 1 µM, 7x7, partner max 1 µM), the “combination Emax” value in test [1] came to 0.148. Also, the Bliss excess in test [2] was -0.02; in test [3] it was -0.0743; in test [4], -0.0675; in test [5], -0.0111; in test [6], -0.0182.

Regarding `NC1(C(=O)N[C@@H](CCO)c2ccc(Cl)cc2)CCN(c2ncnc3[nH]ccc23)CC1` [Capivasertib] + Cn1cnc2c(F)c(Nc3ccc(Br)cc3Cl)c(C(=O)NOCCO)cc21 [Selumetinib] (first compound max 10 µM, 7x7, partner max 10 µM), in test [1], the “combination Emax” value amounted to 0.824. Besides, the Bliss excess is 0.106 in test [2]; -0.039 in test [3]; -0.0566 in test [4]; 0.0548 in test [5]; 0.0788 in test [6].

With `CC(=O)c1c(C)c2cnc(Nc3ccc(N4CCNCC4)cn3)nc2n(C2CCCC2)c1=O` [Palbociclib] + CC1(C)CCC(CN2CCN(c3ccc(C(=O)NS(=O)(=O)c4ccc(NCC5CCOCC5)c([N+](=O)[O-])c4)c(Oc4cnc5[nH]ccc5c4)c3)CC2)=C(c2ccc(Cl)cc2)C1 [Venetoclax] (first compound max 10 µM, 7x7, partner max 1 µM), in test [1], the “combination Emax” value was determined as 0.0628. The Bliss excess in test [2] is -0.0374; in test [3] it was -0.0715; in test [4] it was -0.0114; in test [5] it was 0.0201; in test [6], -0.0205.

For `NC1(C(=O)N[C@@H](CCO)c2ccc(Cl)cc2)CCN(c2ncnc3[nH]ccc23)CC1` [Capivasertib] + C[C@@H]1COCCN1C2=NC(=NC(=C2)C3(CC3)[S@](=N)(=O)C)C4=C5C=CNC5=NC=C4 [AZD6738] (first compound max 10 µM, 7x7, partner max 10 µM), the “combination Emax” value in test [1] was determined as 0.661. Further, the Bliss excess in test [2] is -0.0298; in test [3] it was -0.0359; in test [4], -0.0084; in test [5], 0.0117; in test [6] it was -0.0135.

`COc1nnc2ccc(N3CCC(c4ccc(OCCN5CCN(C)C(=O)[C@H]5C)cc4)CC3)nn12` [AZD5153] + C[C@@H]1COCCN1C2=NC(=NC(=C2)C3(CC3)[S@](=N)(=O)C)C4=C5C=CNC5=NC=C4 [AZD6738] (first compound max 1 µM, 7x7, partner max 10 µM): in test [1], the “combination Emax” value was 0.726. The Bliss excess in test [2] worked out at 0.0139; in test [3], 0.0778; in test [4] it was 0.0999; in test [5], 0.0202; in test [6] it was 0.0137.

As to `COc1cc2ncnc(Nc3ccc(F)c(Cl)c3)c2cc1OCCCN1CCOCC1` [Gefitinib] + CC(C)n1c(=O)n(C)c2cnc3cc(F)c(-c4ccc(OCCCN5CCCCC5)nc4)cc3c21 [AZD1390] (first compound max 10 µM, 7x7, partner max 0.3 µM), the “combination Emax” value in test [1] was 0.121. For the same compound, the Bliss excess was -0.0387 in test [2]; -0.0975 in test [3]; -0.0672 in test [4]; -0.0328 in test [5]; -0.0247 in test [6].

As for `COc1cccc(OCCCN)c1-c1cc(Nc2cnc(C#N)cn2)n[nH]1` [Prexasertib] + CCc1c2c(nc3ccc(O)cc13)-c1cc3c(c(=O)n1C2)COC(=O)[C@]3(O)CC [SN-38] (first compound max 1 µM, 7x7, partner max 0.3 µM), the Bliss excess in test [3] is -0.0333; in test [4] it was -0.0192; in test [5], -0.0066; in test [6], -0.0716.

Turning to `CC1(C)CCC(CN2CCN(c3ccc(C(=O)NS(=O)(=O)c4ccc(NCC5CCOCC5)c([N+](=O)[O-])c4)c(Oc4cnc5[nH]ccc5c4)c3)CC2)=C(c2ccc(Cl)cc2)C1` [Venetoclax] + CN(C)CCCOc1ccc(-c2ccc3ncc4c(c3c2)n(C2CCOCC2)c(=O)n4C)cn1 [AZD0156] (first compound max 1 µM, 7x7, partner max 1 µM), the Bliss excess in test [3] is -0.1; in test [4] it was -0.086; in test [5] it was 0.0018; in test [6], 0.0229.

In the case of `COc1cccc(OCCCN)c1-c1cc(Nc2cnc(C#N)cn2)n[nH]1` [Prexasertib] + C[C@@H]1COCCN1C2=NC(=NC(=C2)C3(CC3)[S@](=N)(=O)C)C4=C5C=CNC5=NC=C4 [AZD6738] (first compound max 1 µM, 7x7, partner max 10 µM), the Bliss excess in test [3] is 0.0292; in test [4], 0.0006; in test [5], -0.0052; in test [6], -0.0317.

Consider `CN(CCO)CC[C@H](CSc1ccccc1)Nc1ccc(S(=O)(=O)NC(=O)c2ccc(N3CCC([C@@H](O)c4ccccc4-c4ccc(Cl)cc4)CC3)cc2)cc1S(=O)(=O)C(F)(F)F` [AZD4320] + C[C@@H]1COCCN1C2=NC(=NC(=C2)C3(CC3)[S@](=N)(=O)C)C4=C5C=CNC5=NC=C4 [AZD6738] (first compound max 1 µM, 7x7, partner max 10 µM), for which the Bliss excess in test [3] is -0.109; in test [4], -0.112; in test [5], -0.0093; in test [6] it was -0.0186.
